Key:
β-glucosidase = β-glucosidase inhibition assay (in situ screen, IC50, Ki); assay type: biochemical, almonds
Experimental: (§1) A mixture of iminocyclitol 4, a carboxylic acid (1 equiv, Scheme 2), diisopropyl ethylamine (DIEA, 2.2 equiv), and (1H-benzotriazole-1-yl)-1,1,3,3-tetramethyl-uronium hexafluorophosphate (HBTU, 1.1 equiv) in DMSO was shaken in 96-well microtiter plates for 5 h. Crude reaction products were randomly selected (30%) and analyzed by ESI-MS to ensure the presence of the desired products. The reaction mixture was diluted by appropriate buffer solutions and transferred to another 96-well microtiter plate for screening directly without any purification. […] Assuming the amide formation is complete, the percentage of inhibition relative to the control was calculated on the basis of absorbance at 405 nm for p-nitrophenol released from their corresponding substrates.
(§2) Enzyme assay. General procedure for the assay with various glycosidases. The initial velocities of the hydrolysis were measured spectrophotometrically at various concentrations of p-nitrophenyl-glycopyranoside (4 mM, 2 mM, 1 mM, 0.5 mM, 0.25 mM, 0.125 mM, 0.0625 mM) at 405 nm using Bio Assay Reader (Perkin Elmer HTS 7000 Plus) at 30° C. The obtained data were fitted into the Michaelis-Menten equation by using the Kaleida Graph program to determine the apparent Km values. […] The assays performed in wells of the microtiter plate contained either sodium phosphate buffer (50 mM, pH 7, for α- and β-glucosidase, α- and β-galactosidase, α- and β-mannosidase, α-fucosidase), or Mcllvaine's buffer (25 mM, pH 6, N-acetyl-β-hexosaminidase, jack bean).
(§3) The secondary plot was generated by plotting the apparent Km values as a function of inhibitor concentrations. Ki was calculated from the negative value of the x-intercept of this plot.

α-glucosidase = biological target: T1, α-glucosidase (Saccharomyces cerevisiae, UniProt P53341); experiment: α-glucosidase inhibition assay (in situ screen, IC50, Ki); assay type: biochemical, baker's yeast
T1 construct: purchased Sigma Co. (St. Louis, Mo.); host or cells: baker's yeast
T1 sequence (P53341 whole entry): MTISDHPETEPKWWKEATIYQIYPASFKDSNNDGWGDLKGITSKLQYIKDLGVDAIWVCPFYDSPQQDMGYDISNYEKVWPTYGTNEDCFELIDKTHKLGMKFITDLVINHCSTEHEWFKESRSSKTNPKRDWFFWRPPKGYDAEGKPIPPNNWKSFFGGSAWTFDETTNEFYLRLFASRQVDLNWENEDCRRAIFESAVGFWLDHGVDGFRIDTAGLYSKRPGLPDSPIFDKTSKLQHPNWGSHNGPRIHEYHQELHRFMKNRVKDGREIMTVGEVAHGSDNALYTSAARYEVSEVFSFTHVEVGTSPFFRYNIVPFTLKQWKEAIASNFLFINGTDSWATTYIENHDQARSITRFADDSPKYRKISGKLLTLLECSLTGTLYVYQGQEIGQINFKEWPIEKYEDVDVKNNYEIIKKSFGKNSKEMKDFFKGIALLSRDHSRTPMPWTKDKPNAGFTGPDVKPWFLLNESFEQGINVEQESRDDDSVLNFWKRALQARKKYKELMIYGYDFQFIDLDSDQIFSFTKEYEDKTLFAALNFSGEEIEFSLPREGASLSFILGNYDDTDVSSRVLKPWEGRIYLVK
Experimental: as §1
General procedure for coupling reactions and in situ screening. To a DMSO solution (10 μL) in each well of a 96-well microtiter plate was added each carboxylic acid (10 μL from a 10 mm stock solution in DMSO, 0.1 μmol), HBTU (10 μL from a 11 mm stock solution in DMSO, 1.1 equiv, 0.11 μmol), and DIEA (10 μL from a 22 mM stock solution in DMSO, 2.2 equiv, 0.22 μmol).
as §2, §3

[1] = biological target: human N-acetyl-β-hexosaminidases; settings: previous study [30]; cited from earlier work
[2] = biological target: N-acetyl-β-hexosaminidase; experiment: N-acetyl-β-hexosaminidase inhibition assay (in situ screen, IC50, Ki); assay type: biochemical, jack bean
Experimental: as §1, §2, §3

[3] = system: Japanese encephalitis virus (JEV); experiment: Anti-JEV cell-based assay (plaque forming assay, BHK-21 cells); settings: M.O.I. = 0.1, virus production, BHK-21 cells; for IC50: read-out: JEV IC50; for IC90: read-out: JEV IC90
[4] = system: dengue virus serotype 2 (DEN-2); experiment: Anti-DEN-2 cell-based assay (plaque forming assay, BHK-21 cells); settings: M.O.I. = 0.1, virus production, BHK-21 cells; for IC50: read-out: DEN IC50; for IC90: read-out: DEN IC90
SARS-CoV = assay type: cell-based, SARS-CoV (H. K. strain); settings: Vero E6 cells
BHK-21 cells = experiment: XTT cell viability assay; assay type: cell-based; settings: 10 μM, FIG. 2A
Experimental: XTT assay. To determine cell viability, a colorimetric XTT-based assay was performed (Cell Proliferation Kit II; Roche). BHK-21 cells in a 96-well plate were incubated with various concentrations of inhibitors for 2 days before the XTT labeling reagent was added to the culture medium. Cells were incubated at 37° C. for about 30 min and then read by an enzyme-linked immunosorbent assay (ELISA) reader at 450 nm (Molecular Devices).

[5] = system: human chondrosarcoma cells; settings: cell-associated fraction and culture supernatant; previous study; cited from earlier work
[6] = biological target: human placenta N-acetyl-β-hexosaminidase; experiment: Kinetic analysis of human placenta β-hexosaminidase; assay type: biochemical; settings: substrate 4-MU-GNAc, pH 4.5
Experimental: Our strategy began with reductive amination of compound 5 with aldehydes of different lengths to give compounds 43-49 (FIG. 4). The intermediates were either deprotected under acidic conditions or hydrogenolysed to give primary amines 50-56. […] Thus, the inhibition studies of compounds 51-56 against human placenta N-acetyl-β-hexosaminidase were carried out. 4-Methylumbelliferyl N-acetyl-β-D-glucosaminide (4-MU-GNAc) was used as the substrate. The apparent Km and Vmax values for each substrate were calculated from the Lineweaver-Burke double reciprocal plot of [1/v]/[1/S]. The Ki values were determined from a replot of the Km (app) vs the inhibitor concentration. […] (FIG. 4). […] Compound 54 with a heptamine moiety was the strongest inhibitor. […] As the crystal structure of human β-hexosaminidase B is now avalible,^[43] its complex with 54 was modeled to reveal a narrow hydrophobic cleft in the active site, which is mainly enclosed by the side-chain groups of residues W424, Y450, […], L453 and the backbone of residues K425 and D426 (FIG. 5). The amino group at the terminal site is expected to be largely protonated when binding with the enzyme. It presumably forms a salt bridge with the secondary aglycon binding site of the enzyme.^[44] It appears that the alkyl linkage is long enough to bring the amine end near enough to have hydrogen-bond interactions with the backbone carbonyl of K425 and A447 and a possible ionic interaction with the carboxyl group of D426.
Kinetic analysis of human placenta β-hexosaminidase. Incubations were performed in a total volume of 200 μL. Unless otherwise stated, reaction mixtures contained 100 mM citrate buffer (pH 4.5), various amount of 4-methylumbelliferyl N-acetyl-β-D-glucosaminide, and various amounts of inhibitors with 0.02 mU/well of β-hexosaminidase. After incubation for 15 min at 30° C., the reaction was terminated by the addition of 0.5 M sodium glycine buffer, pH 10.5. Enzyme activity was measured by the release of 4-methylumbelliferone with the excitation wavelength of 360 nm and the emission wavelength of 460 nm.

[7] = system: Japanese encephalitis virus (JEV); settings: earlier work [16]; cited from earlier work
[8] = system: dengue virus serotype 2 (DEN-2); settings: earlier work [16]; cited from earlier work
[9] = reaction product at 20 μM, in situ screening

Question: With `CC(=O)NC[C@H]1N[C@H](CO)[C@@H](O)[C@@H]1O` [Compound 5] as the molecule, how does the IC50 (β-glucosidase; pure compound) read?
Answer: The IC50 was > 500 µM.

Question: And the “β-glucosidase Inhibition (%)” value (β-glucosidase; [9])?
Answer: Its value is 20%.

Question: What about the IC50 (α-glucosidase; pure compound) of the same molecule?
Answer: The IC50 was 280 µM.

Question: And the inhibition at 20 µM (α-glucosidase; [9])?
Answer: The inhibition at 20 µM was 12%.

Question: What about the Ki [1] of the same molecule?
Answer: Its Ki is 0.024 µM.

Question: And the IC50 ([2]; pure compound, read-out: N-acetyl-β-hexosaminidse IC50)?
Answer: The IC50 was 0.16 µM.

Question: What about the “N-acetyl-β-hexosaminidse Inhibition (%)” value ([2]; reaction product at 30 μM, in situ screening) of the same molecule?
Answer: The value was 85%.

Question: What about the Ki ([2]; value in brackets, read-out: N-acetyl-β-hexosaminidse (Ki)) of the same molecule?
Answer: The Ki was 0.022 µM.

Question: Which results are given for `CCCCCCCCCCN1C(CO)C(O)C(O)C1CNC(=O)C1Cc2ccccc21` (stereo not drawn) [Compound 37]?
Answer: IC50 [3]: 9.6 ± 0.8 µM; IC90 [3]: 18 ± 0.2 µM; IC50 [4]: 4.7 µM; IC90 [4]: 9.2 µM; IC50 (SARS-CoV): 3.3 to 10 µM

Question: Which “cytotoxicity (XTT assay, cell proliferation)” value (BHK-21 cells) does the source give for `CCCCCCCCCCCCN1C(CO)C(O)C(O)C1CNC(=O)C1Cc2ccccc21` (stereo not drawn) [Compound 38] here?
Answer: Its value is “low level of cytotoxicity”.

Question: What about the IC50 [3] of the same molecule?
Answer: The IC50 was 7.6 ± 0.1 µM.

Question: And the IC90 [3]?
Answer: The IC90 was 9.7 ± 0.1 µM.

Question: What about the IC50 [4] of the same molecule?
Answer: Its IC50 is 6 ± 0.5 µM.

Question: And the IC90 [4]?
Answer: The IC90 was 9.1 ± 0.3 µM.

Question: Which results are given for `CC(=O)NC[C@@H]1[C@@H](O)[C@H](O)[C@@H](CO)N1C` [Compound 42, (2R,3R,4R,5R)—N-methyl-2-(acetamido-methyl)-3,4-dihydroxy-5-(hydroxymethyl)pyrrolidine]?
Answer: effect on glycosaminoglycans (GAGs) [5]: accumulation of glycosaminoglycans (GAGs) in the cell-associated fraction and a decrease in the release of GAGs into the culture supernatant; Ki [1]: 0.024 µM

Question: For `CC(=O)NCC1C(O)C(O)C(CO)N1CCCCCCCN` (stereo not drawn) [Compound 54], which Ki [6] is on record?
Answer: The Ki was 0.0026 µM.

Question: For `CC(=O)NCC1C(O)C(O)C(CO)N1CCOCCOCCN` (stereo not drawn) [Compound 56], which Ki [6] is on record?
Answer: The Ki was 0.06 µM.

Question: For `CCCCCCN1C(CO)C(O)C(O)C1CNC(C)=O` (stereo not drawn) [Compound 57], which Ki [6] is on record?
Answer: The Ki was 0.18 µM.

Question: With `CCCCCCCN1C(CO)C(O)C(O)C1CNC(C)=O` (stereo not drawn) [Compound 58] as the molecule, how does the Ki [6] read?
Answer: The Ki was 0.25 µM.

Question: With `CCCCCCCCN1C(CO)C(O)C(O)C1CNC(C)=O` (stereo not drawn) [Compound 59] as the molecule, how does the Ki [6] read?
Answer: The Ki was 0.16 µM.

Question: Which “inhibition of JEV” value [7] does the source give for `CCCCCCCCCN1C[C@H](O)[C@@H](O)[C@@H](O)[C@H]1CO` [NN-DGJ, N-nonyldeoxygalactonojirimycin] here?
Answer: Its value is “did not inhibit”.

Question: What about the “inhibition of DEN-2” value [8] of the same molecule?
Answer: Its value is “did not inhibit”.

Source: US8273788B2, “Five-membered iminocyclitol derivatives as selective and potent glycosidase inhibitors: new structures for antivirals and osteoarthritis therapeutics” (Academia Sinica, Taiwan, priority 2005, dated 2012)
